Source: US12605451B2, “Targeted plasma protein degradation” (Novartis AG, priority 2020, dated 2026)

Experiments:
FHR3 = target: T1, FHR3 (Homo sapiens, UniProt Q02985); experiment: SPR binding to biotinylated FHR3 (Proteon XPR36); conditions: Bifunctional Compound
T1 construct: Purified FHR3 with C-terminal biotinylated Avitag was used for the assay
T1 sequence (Q02985 19-330): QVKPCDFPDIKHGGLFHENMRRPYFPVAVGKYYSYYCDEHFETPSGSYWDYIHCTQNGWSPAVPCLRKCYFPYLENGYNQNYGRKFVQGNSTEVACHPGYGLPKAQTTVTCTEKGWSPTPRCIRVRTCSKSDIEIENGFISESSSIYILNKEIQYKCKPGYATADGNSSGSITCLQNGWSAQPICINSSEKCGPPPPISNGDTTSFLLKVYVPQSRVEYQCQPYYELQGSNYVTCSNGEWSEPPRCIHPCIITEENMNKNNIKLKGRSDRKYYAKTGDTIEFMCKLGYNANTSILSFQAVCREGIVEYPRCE
Procedure: SPR was used to obtain the binding data for FHR3 receptor ligands compounds (C12), (C13), (C14), (C15) and (C16), either alone or as part of the bifunctional compounds (BFC13), (BFC14), (BFC15), (BFC16) and (BFC17), respectively.
SPR Binding experiments were performed on a Proteon XPR36 instrument (Bio-Rad Laboratories). Purified FHR3 with C-terminal biotinylated Avitag was used for the assay. Biotinylated FHR3 was incubated with fivefold molar excess of bifunctional compounds (BFC13), (BFC14), (BFC15), (BFC16) or (BFC17), or compounds (C12), (C13), (C14), (C15) or (C16), and immobilized onto a Neutravidin coated sensor chip. (NLC chip, Bio-Rad Laboratories, Inc). […]
To perform sandwich SPR binding assays, His-ASGPR1 (62-291) protein stocks were diluted with running buffer to a desired concentration. […] Sensorgrams were recorded for association and dissociation phases. All sensorgrams were processed by subtracting the binding response recorded from a blank control surfaces (or interspot surfaces), followed by subtracting buffer blank injections from the reaction surface. […]

human ASGPR1 = target: T2, human ASGPR1 (Homo sapiens, UniProt P07306); experiment: ASGPR1 SPR direct binding (Biacore, SA chip); conditions: Bifunctional Compound (FHR3 series), Table 7, read-out: ASGRR KD
T2 construct: Recombinant extracellular domain of human ASGPR1 with N-terminal biotinylated Avitag
T2 sequence (P07306 62-291 limits assumed): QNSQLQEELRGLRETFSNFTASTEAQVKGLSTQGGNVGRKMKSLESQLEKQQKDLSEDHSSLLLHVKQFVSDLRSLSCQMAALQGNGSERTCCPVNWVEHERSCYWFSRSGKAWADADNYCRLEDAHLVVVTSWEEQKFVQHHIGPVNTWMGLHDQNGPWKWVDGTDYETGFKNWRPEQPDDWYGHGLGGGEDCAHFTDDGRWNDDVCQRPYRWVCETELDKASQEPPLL
Procedure: SPR was used to obtain the binding data for ASGP receptor ligand compound (int-CC2), either alone or as part of the bifunctional compounds (BFC-13), (BFC-15) and (BFC16).
(§1) ASGPR1 SPR experiments were performed on either Biacore T200 or Biacore 8K. The assay was optimized for Biacore (Streptavidin) SA chip in running buffer consisting of 20 mM HEPES, 300 mM NaCl, 2 mM CaCl2, 0.01% tween-20, 2% DMSO, pH 7.4. Recombinant extracellular domain of human ASGPR1 with N-terminal biotinylated Avitag was diluted to 20 μg/mL in running buffer, and immobilized onto SA chip after it was preconditioned with at least four 60-second injections at 30 uL/min of 1 M NaCl/40 mM NaOH solution. Protein immobilization level varied from 500 RU to 3500 RU dependent on analytes' molecular weight, for targeted Rmax of 30 RUs. Direct binding of analytes to ASGPR1 was observed when a dose response titration of analytes in 2% DMSO was flown over the immobilized protein. Data analysis was done on either Biacore T200 Evaluation Software or Biacore Insight Evaluation Software.
SPR was used to obtain the binding data for ASGP receptor ligand compounds (int-CC2), either alone or as part of the bifunctional compounds (BFC1).
as §1, with “Biacore” for “Biacore (Streptavidin)”

Kd (FHR3): 26 nM
Kd (human ASGPR1): 0.32 nM
SMILES: CC(=O)N[C@H]1[C@H](OCCCCC(=O)NCCCNC(=O)CCOCC(COCCC(=O)NCCCNC(=O)CCCCO[C@@H]2O[C@H](CO)[C@H](O)[C@H](O)[C@H]2NC(C)=O)(COCCC(=O)NCCCNC(=O)CCCCO[C@@H]2O[C@H](CO)[C@H](O)[C@H](O)[C@H]2NC(C)=O)NC(=O)CCOCCOCCOCCOCCOCCOCCOCCOCCOCCC(=O)NCCCC[C@@H]2NC(=O)[C@H](CCCNC(=N)N)NC(=O)[C@H](C)N(C)C(=O)[C@H](Cc3c[nH]c4ccccc34)NC(=O)[C@H](Cc3c[nH]cn3)NC(=O)[C@H](CC(C)C)NC(=O)[C@H](CO)NC(=O)[C@H](C)N(C)C(=O)[C@H](Cc3ccccc3)N(C)C(=O)[C@H](Cc3ccccc3)NC(=O)CSC[C@@H](C(=O)NCC(N)=O)NC(=O)[C@H](CCCNC(=N)N)NC(=O)[C@H](CC(=O)O)NC2=O)O[C@H](CO)[C@H](O)[C@@H]1O [BFC-16]
